Data taken from patent EP0018104A2, “Tetrahydroisoquinolines, their production and the compounds and pharmaceutical compositions containing them for use in the prevention or treatment of hypertension” (Takeda Chemical Industries, Ltd., priority 1979, dated 1980).

Molecular target: T1, angiotensin I converting enzyme (ACE) (Oryctolagus cuniculus, UniProt P12822)
T1 construct: prepared from the lungs of albino rabbit according to the method described by Wallace et al; from tissue; host or cells: lungs of albino rabbit
T1 sequence (P12822 34-1310): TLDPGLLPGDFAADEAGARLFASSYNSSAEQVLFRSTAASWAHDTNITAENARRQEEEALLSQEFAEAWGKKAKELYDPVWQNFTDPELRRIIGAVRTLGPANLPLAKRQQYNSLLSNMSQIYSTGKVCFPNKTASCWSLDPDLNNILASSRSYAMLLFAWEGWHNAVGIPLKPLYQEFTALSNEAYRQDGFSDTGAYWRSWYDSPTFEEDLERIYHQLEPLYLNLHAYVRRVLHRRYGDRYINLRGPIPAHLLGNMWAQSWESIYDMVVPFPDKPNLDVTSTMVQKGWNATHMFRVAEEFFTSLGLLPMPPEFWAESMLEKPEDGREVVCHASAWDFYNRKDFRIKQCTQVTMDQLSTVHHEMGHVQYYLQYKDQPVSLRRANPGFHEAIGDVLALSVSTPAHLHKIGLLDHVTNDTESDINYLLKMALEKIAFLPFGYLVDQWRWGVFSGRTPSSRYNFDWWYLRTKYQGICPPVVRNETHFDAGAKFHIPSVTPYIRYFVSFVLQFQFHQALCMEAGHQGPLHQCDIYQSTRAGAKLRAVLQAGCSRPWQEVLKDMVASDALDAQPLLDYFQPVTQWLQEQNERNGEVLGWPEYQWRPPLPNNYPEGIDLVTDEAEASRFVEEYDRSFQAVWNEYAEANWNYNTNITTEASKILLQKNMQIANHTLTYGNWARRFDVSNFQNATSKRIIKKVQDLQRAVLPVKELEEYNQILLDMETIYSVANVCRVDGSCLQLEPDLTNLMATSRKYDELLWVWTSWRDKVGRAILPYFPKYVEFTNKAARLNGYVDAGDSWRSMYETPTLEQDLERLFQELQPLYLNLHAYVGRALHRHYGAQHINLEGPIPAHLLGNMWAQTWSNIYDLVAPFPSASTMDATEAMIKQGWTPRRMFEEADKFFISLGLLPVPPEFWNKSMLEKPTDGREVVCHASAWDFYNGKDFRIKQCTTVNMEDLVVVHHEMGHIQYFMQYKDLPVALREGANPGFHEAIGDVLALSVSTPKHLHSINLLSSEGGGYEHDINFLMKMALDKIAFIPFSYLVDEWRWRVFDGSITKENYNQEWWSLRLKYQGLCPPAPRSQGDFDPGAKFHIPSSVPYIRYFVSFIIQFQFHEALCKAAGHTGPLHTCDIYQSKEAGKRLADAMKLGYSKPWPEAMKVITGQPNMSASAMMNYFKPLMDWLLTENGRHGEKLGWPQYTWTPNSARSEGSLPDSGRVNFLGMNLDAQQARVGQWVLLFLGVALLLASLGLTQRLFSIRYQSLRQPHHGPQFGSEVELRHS
Test: Inhibition of angiotensin I converting enzyme (HHL substrate, hippuric acid colorimetry, modified Cushman method)
Type: biochemical, albino rabbit
Details: ACE from rabbit lung, 37°C, one hour, read-out: Inhibitory Activity on ACE (%); for inhibition at 1 µM: Concentration 1 µM; for inhibition at 10 µM: Concentration 10 µM
Procedure: Inhibitions of Angiotensin I Converting Enzyme by the Compounds of this Invention.
The experiment was conducted in accordance with a modification of the method described by Cushman et al. [Biochemical Pharmacology, Vol. 20, p1637(1971)] using an angiotensin I converting enzyme (ACE) prepared from the lungs of albino rabbit according to the method described by Wallace et al. [American Journal of Physiology, Vol 234, page R141(1978)]. That is, using hippuryl-L-histidyl-L-leucin (HHL) as the substrate, the ACE inhibitory activity was determined in terms of percentage inhibitation on the amount of hippurie acid produced by ACE when the present compound was added. A solution of the compound of the present invention dissolved in an 0.02 to 2% dimethyl sulfoxide-500 mMpotassium phosphate buffer solution (pH 8.3, containing 300 mM sodium chloride) was added to 100 µℓ of ACE (protein concentration, 20 mg/mℓ) and 100 µℓ of 1.25 mM HHL. In this experiment a potassium phosphate buffer solution containing dimethyl sulfoxide at a concentration equal to that of the test solution was used as a control. After incubating the solution at 37°C for one hour, 150 µℓ of 1N hydrochloric acid were added to the solution to terminate the reaction. After 1 mℓ of ethyl acetate was added, the solution was centrifuged at 3000 r.p.m. for 10 minutes. An 0.5 mℓ aliquot was separated from the ethyl acetate layer and dried at a temperature below 50°C under a nitrogen. gas stream. The residue was mixed with mℓ of 1M aqueous sodium chloride and the mixture was subjected to colorimetry at a wavelength of 228 nm.

Row | inhibition at 1 µM | inhibition at 10 µM | SMILES
1 | 63% | 88% | CC(=O)SCC(C)C(=O)N1Cc2cc(C)ccc2CC1C(=O)O (centres unmarked) [Example 7]
2 | 66% | 97% | CC(=O)SCC(C)C(=O)N1Cc2cc(N3CCCCC3)ccc2CC1C(=O)O (centres unmarked) [Example 44, 2-(3-acetylthio-2-methylpropionyl)-7-piperidino-1,2,3,4-tetrahydroisoquinoline-3-carbozylic acid]
3 | 62% | 99% | COc1cc2c(cc1OC)CN(C(=O)C(C)CSC(C)=O)C(C(=O)O)C2 (centres unmarked) [Example 6, 2-(3-acetylthio-2-methylpropionyl)-6,7-dimethoxy-1,2,3,4-tetrahydroisoquinoline-3-carboxylic aeid]
4 | 61% | 98% | CC(=O)SCC(C)C(=O)N1Cc2ccc(O)cc2CC1C(=O)O (centres unmarked) [Example 19, 2-(3-acetylthio-2-methylpropionyl)-6-hydroxy-1,2,3,4-tetrahydroisoquinoline-3-carboxylic acid]
